The text below walks through data of BindingDB's records for doi:10.1021/cc0501561 (East China Univesity of Science and Technology, 2006).

This assay addresses Peptidyl-prolyl cis-trans isomerase A (Homo sapiens, UniProt P62937). Briefly: Surface Plasmon Resonance Assay. The conditions noted are these: pH 7.4; 25 °C. The method, then: CypA in vitro were determined by employing surface plasmon resonance (SPR) technology.

Peptidyl-prolyl cis-trans isomerase A, sequence (P62937 whole entry): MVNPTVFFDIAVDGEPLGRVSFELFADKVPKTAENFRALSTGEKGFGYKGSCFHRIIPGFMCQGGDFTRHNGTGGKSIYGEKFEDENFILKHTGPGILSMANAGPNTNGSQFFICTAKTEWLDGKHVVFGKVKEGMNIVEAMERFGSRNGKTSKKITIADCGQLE

One may read the Kd as the equilibrium constant for the complex coming apart. For `COC(=O)c1cc(C(=O)Nc2ccc(S(=O)(=O)Nc3onc(C)c3C)cc2)ccc1NCc1ccccc1` [CypA Inhibitor, 3b], the Kd came out at 10.8 µM. The same measure, in the same setting: under `CC(C)CCOC(=O)Nc1cc(-c2ccc3ccccc3c2)nc2ccccc12` [CypA Inhibitor, 2a] stands 0.0762 µM. The IC50 is the concentration that inhibits the measured activity by half. For the molecule `O=C(Nc1ccc(S(=O)(=O)Nc2cnc3ccccc3n2)cc1)c1ccc2nc(-c3ccco3)c(-c3ccco3)nc2c1` [CypA Inhibitor, 4g], the IC50 stood at 0.78 µM and the affinity, expressed as Kd, was 35.3 µM.

In turn, `CCOC(=O)[C@@H]1CCCN(Cc2cc(-c3ccc4ccccc4c3)nc3ccccc23)C1` [CypA Inhibitor, 1d] yielded a Kd of 17.2 µM. On to `O=C(Nc1ccc(S(=O)(=O)Nc2ncccn2)cc1)c1ccc2nc(-c3ccco3)c(-c3ccco3)nc2c1` [CypA Inhibitor, 4f], for which the half-inhibitory concentration (IC50) amounted to 0.96 µM and binding was characterised by a dissociation constant (Kd) of 22.8 µM. The molecule `Cc1noc(NS(=O)(=O)c2ccc(NC(=O)c3ccc4nc(-c5ccco5)c(-c5ccco5)nc4c3)cc2)c1C` [CypA Inhibitor, 4b] yielded a Kd of 27.3 µM. In turn, `CC(C)(C)NC(=O)[C@@H]1Cc2ccccc2CN1Cc1cc(-c2ccc3ccccc3c2)nc2ccccc12` [CypA Inhibitor, 1b] came in with a Kd of 3.07 µM. Still for that read-out and setting: the figure for `CC(C)(C)NC(=O)[C@@H]1Cc2ccccc2CN1Cc1cc(-c2cccc(Cl)c2)nc2ccccc12` [CypA Inhibitor, 1a] is 24.3 µM; for `CCN(CC)C(=O)CNCc1cc(-c2ccc3ccccc3c2)nc2ccccc12` [CypA Inhibitor, 1e] it is 3.41 µM; for `CCOC(=O)[C@H]1CCCN(C(=O)Nc2cc(-c3cccc(Cl)c3)nc3ccccc23)C1` [CypA Inhibitor, 2b] it is 28.8 µM. Take `Cc1ccnc(NS(=O)(=O)c2ccc(NC(=O)c3ccc4nc(-c5ccco5)c(-c5ccco5)nc4c3)cc2)n1` [CypA Inhibitor, 4c]: the IC50 turned out to be 6.43 µM and binding was characterised by a dissociation constant (Kd) of 41 µM. With `c1ccc2cc(-c3cc(CN4CCCCC4)c4ccccc4n3)ccc2c1` [CypA Inhibitor, 1c], the Kd came out at 0.212 µM.

Turning to `COC(=O)c1cc(C(=O)Nc2cc(-c3cccc(Cl)c3)nc3ccccc23)ccc1NCc1ccccc1` [CypA Inhibitor, 3a], the Kd stood at 8.18 µM. As for `Cc1cc(NS(=O)(=O)c2ccc(NC(=O)c3ccc4nc(-c5ccco5)c(-c5ccco5)nc4c3)cc2)no1` [CypA Inhibitor, 4e], 2.86 µM corresponded to half-maximal inhibition (IC50) and the Kd is 38.7 µM. With `COC(=O)c1cc(NC(=O)c2ccc3nc(-c4ccco4)c(-c4ccco4)nc3c2)ccc1NCc1ccccc1` [CypA Inhibitor, 4a], half-maximal inhibition (IC50) required 0.25 µM and the Kd came to 8.19 µM. For the molecule `Cc1cc(C)nc(NS(=O)(=O)c2ccc(NC(=O)c3ccc4nc(-c5ccco5)c(-c5ccco5)nc4c3)cc2)n1` [CypA Inhibitor, 4d], the affinity, expressed as Kd, was 30.8 µM.
